US12006328B2, “Thieno[2,3-d]pyrimidin-4-one derivatives as NMDAR modulators and uses related thereto” (Emory University, priority 2014, dated 2024)

Assays:
Assay type in all cases: cell-based
[1] = target: GluN2D-containing NMDA receptors (Homo sapiens, UniProt O15399); test: Two-electrode voltage-clamp recordings from Xenopus laevis oocytes, GluN2D; details: for I10 μM/ICONTROL (mean ± SEM, %) Glu N2D: 10 μM test compound with glutamate 100 μM and glycine 30 μM, Tables 1-5; for I10 μM/ICONTROL (mean ± SEM, %) Glu N2D / maximal potentiation Glu N2D: percent of response without compound; for EC50 / IC50: glutamate 100 μM, glycine 30 μM, Hill fit; for EC50: read-out: EC50 Glu N2D; for IC50: read-out: IC50 Glu N2D
Protocol: (§1) Xenopus laevis oocytes were injected with cRNA encoding the NMDA receptor subunits. Two to seven days after injection, two-electrode voltage-clamp recordings were performed. Extracellular solutions were made from a solutions containing (in mM) 90 NaCl, 3 KCl, 10 HEPES, 0.5 BaCl2, 0.01 EDTA (pH 7.4 with NaOH). Voltage and current electrodes were filled with 0.3 M and 3.0 M KCl, respectively.
(§2) Potency was determined by adding increasing concentrations of test compound to saturating concentrations of glutamate (100 μM) and glycine (30 μM), and the response amplitude measured. The response in the presence of each concentration of test compound plus agonists was expressed as a percent of the response in the absence of test compound.

[2] = target: GluN2B-containing NMDA receptors (Homo sapiens, UniProt Q13224); test: Two-electrode voltage-clamp recordings from Xenopus laevis oocytes, GluN2B; details: for I10 μM/ICONTROL (mean ± SEM, %) Glu N2B: 10 μM test compound with glutamate 100 μM and glycine 30 μM, Tables 1-5; for I10 μM/ICONTROL (mean ± SEM, %) Glu N2B / maximal potentiation Glu N2B: percent of response without compound; for EC50: read-out: EC50 Glu N2B
Protocol: as §1, §2

[3] = target: GluN2C-containing NMDA receptors (Homo sapiens, UniProt Q14957); test: Two-electrode voltage-clamp recordings from Xenopus laevis oocytes, GluN2C; details: for I10 μM/ICONTROL (mean ± SEM, %) Glu N2C: 10 μM test compound with glutamate 100 μM and glycine 30 μM, Tables 1-5; for I10 μM/ICONTROL (mean ± SEM, %) Glu N2C / maximal potentiation Glu N2C: percent of response without compound; for EC50 / IC50: glutamate 100 μM, glycine 30 μM, Hill fit; for EC50: read-out: EC50 Glu N2C; for IC50: read-out: IC50 Glu N2C
Protocol: as §1, §2

[4] = Table 1, in brackets after EC50
[5] = Table 1, glutamate 100 μM, glycine 30 μM, Hill fit
[6] = Table 2, in brackets below IC50

GluN2D-containing NMDA receptors, sequence (O15399 28-1336, other chains not shown): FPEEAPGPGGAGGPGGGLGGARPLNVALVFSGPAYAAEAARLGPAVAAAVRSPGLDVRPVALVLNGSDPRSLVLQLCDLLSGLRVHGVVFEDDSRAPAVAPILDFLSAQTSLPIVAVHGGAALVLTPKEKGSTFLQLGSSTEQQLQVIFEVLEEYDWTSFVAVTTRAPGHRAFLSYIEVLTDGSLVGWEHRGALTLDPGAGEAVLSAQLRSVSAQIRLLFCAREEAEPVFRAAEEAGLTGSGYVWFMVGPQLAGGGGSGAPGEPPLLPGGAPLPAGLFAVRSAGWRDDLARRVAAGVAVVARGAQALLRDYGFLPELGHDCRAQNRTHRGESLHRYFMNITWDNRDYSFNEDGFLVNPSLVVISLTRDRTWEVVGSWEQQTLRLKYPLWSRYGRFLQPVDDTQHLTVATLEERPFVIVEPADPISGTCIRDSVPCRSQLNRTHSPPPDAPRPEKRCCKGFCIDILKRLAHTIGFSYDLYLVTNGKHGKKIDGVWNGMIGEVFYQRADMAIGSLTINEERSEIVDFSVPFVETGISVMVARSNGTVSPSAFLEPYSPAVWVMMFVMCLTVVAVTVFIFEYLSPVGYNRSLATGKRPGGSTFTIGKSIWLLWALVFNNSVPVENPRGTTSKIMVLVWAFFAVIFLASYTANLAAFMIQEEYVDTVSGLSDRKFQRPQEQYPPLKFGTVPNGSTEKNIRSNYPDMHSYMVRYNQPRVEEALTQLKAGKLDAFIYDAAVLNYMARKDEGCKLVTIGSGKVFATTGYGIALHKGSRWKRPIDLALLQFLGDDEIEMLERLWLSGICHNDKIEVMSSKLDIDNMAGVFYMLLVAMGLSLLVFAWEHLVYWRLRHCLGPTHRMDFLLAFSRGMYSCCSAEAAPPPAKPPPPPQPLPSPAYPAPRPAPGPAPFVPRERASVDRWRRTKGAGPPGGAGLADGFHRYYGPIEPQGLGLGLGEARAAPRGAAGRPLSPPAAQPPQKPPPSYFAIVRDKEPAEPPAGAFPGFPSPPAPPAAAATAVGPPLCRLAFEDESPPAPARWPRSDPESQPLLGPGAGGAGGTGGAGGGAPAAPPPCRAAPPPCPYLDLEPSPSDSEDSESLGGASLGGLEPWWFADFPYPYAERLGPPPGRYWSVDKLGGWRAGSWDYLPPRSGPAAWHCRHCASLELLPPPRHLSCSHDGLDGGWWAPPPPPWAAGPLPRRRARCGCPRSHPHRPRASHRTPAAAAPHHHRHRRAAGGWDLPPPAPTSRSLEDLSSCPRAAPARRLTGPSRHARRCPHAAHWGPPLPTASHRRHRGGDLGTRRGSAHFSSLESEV
GluN2B-containing NMDA receptors, sequence (Q13224 27-1484, other chains not shown): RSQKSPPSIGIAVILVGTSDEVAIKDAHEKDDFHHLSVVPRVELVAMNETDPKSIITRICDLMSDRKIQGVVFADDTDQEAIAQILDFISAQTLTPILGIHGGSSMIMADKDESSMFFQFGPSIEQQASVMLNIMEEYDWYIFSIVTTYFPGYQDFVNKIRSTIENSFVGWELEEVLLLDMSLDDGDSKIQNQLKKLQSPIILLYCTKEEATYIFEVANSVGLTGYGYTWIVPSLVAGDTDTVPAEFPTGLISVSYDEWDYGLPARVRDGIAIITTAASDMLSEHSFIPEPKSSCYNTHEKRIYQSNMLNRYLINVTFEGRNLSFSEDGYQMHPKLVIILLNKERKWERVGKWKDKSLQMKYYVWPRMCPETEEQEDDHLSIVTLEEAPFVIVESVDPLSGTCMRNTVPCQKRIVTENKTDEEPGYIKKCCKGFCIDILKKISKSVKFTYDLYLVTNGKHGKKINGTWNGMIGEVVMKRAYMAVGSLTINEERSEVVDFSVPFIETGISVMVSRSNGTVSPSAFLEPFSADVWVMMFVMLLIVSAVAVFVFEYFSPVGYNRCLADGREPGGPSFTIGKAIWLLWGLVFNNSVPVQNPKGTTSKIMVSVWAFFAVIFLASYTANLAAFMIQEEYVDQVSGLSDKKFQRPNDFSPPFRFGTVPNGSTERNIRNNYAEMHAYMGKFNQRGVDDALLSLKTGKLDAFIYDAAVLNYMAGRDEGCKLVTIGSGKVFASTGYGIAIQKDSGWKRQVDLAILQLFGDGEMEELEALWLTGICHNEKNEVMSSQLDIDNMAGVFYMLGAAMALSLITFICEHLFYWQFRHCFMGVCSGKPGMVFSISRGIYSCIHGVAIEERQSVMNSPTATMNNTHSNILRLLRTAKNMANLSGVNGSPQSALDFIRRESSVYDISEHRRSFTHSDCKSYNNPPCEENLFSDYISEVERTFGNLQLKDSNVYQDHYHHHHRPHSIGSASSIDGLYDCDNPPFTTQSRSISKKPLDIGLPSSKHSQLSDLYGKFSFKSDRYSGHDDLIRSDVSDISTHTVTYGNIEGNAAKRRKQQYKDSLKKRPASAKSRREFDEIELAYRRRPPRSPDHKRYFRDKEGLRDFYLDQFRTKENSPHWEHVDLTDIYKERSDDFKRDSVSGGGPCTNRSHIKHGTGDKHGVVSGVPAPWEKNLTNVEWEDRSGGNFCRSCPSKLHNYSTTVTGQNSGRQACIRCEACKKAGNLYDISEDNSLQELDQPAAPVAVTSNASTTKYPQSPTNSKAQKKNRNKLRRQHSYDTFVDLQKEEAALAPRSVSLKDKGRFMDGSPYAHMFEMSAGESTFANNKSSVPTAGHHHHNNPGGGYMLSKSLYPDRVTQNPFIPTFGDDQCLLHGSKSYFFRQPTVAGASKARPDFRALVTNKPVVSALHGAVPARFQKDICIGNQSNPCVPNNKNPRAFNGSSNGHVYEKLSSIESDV
GluN2C-containing NMDA receptors, sequence (Q14957 20-1233, other chains not shown): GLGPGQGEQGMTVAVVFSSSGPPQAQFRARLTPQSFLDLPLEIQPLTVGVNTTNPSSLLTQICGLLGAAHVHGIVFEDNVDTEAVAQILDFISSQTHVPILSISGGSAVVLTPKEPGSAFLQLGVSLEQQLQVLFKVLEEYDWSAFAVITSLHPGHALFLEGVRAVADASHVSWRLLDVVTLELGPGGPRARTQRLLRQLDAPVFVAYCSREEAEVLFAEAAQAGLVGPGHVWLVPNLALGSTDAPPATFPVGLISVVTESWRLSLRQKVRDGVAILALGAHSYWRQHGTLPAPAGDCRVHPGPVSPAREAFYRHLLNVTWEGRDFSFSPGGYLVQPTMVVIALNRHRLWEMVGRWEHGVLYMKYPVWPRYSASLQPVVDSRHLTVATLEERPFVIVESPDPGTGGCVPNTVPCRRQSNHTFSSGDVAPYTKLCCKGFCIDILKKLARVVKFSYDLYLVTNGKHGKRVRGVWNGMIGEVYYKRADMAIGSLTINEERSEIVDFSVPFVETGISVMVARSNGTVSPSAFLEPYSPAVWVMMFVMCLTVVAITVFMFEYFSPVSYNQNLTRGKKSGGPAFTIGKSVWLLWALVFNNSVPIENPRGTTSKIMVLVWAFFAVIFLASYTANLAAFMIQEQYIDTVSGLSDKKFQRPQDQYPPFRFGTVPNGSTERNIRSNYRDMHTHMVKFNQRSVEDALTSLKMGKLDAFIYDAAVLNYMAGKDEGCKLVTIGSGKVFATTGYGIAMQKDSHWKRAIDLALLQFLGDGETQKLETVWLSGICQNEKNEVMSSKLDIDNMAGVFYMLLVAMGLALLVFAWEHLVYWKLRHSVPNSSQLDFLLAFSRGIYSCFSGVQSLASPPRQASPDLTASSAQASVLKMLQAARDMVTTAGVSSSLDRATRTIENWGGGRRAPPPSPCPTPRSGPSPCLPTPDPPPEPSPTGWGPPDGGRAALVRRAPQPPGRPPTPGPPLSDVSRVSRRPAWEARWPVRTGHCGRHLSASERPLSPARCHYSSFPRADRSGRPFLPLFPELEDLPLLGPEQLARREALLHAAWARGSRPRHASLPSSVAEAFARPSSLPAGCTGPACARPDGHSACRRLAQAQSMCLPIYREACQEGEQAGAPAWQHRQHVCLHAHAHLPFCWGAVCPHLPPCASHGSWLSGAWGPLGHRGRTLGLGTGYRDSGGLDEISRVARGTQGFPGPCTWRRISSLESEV

Cc1sc2ncn(CCC(=O)N3CCCC3)c(=O)c2c1-c1cccc(Cl)c1 [2 / 3-Cl—Ph / Me / —Npyrrolidine]
I10 μM/ICONTROL (mean ± SEM, %) Glu N2D [1]: 90 ± 1.7%
I10 μM/ICONTROL (mean ± SEM, %) Glu N2B [2]: 95 ± 1.7%
I10 μM/ICONTROL (mean ± SEM, %) Glu N2C [3]: 99 ± 5.0%

CCOc1ccc(-c2c(C)sc3ncn(CC(=O)N4CCCC4)c(=O)c23)cc1 [4-OEt—Ph / Me]
EC50 ([1]; Table 1): 18 µM
maximal potentiation Glu N2D [1, 4]: 232%
EC50 [2, 5]: 15 µM
maximal potentiation Glu N2B [2, 4]: 147%
EC50 ([3]; Table 1): 18 µM
maximal potentiation Glu N2C [3, 4]: 186%

CCOC(=O)CNC(=O)Cn1cnc2sc(C)c(-c3ccc(Br)cc3)c2c1=O [1 / 4-Br—Ph / Me / —NHCH2COOEt]
I10 μM/ICONTROL (mean ± SEM, %) Glu N2D [1]: 104 ± 0.6%
I10 μM/ICONTROL (mean ± SEM, %) Glu N2B [2]: 96 ± 2.1%
I10 μM/ICONTROL (mean ± SEM, %) Glu N2C [3]: 104 ± 2.5%

Cc1ccc(-c2csc3ncn(CC(=O)N4CCC4)c(=O)c23)cc1 [1 / 4-Me—Ph / H / —Nazetidine]
IC50 ([1]; Table 2): 57 µM
maximal potentiation Glu N2D [1, 6]: (0) %
IC50 ([3]; Table 2): > 100 µM

CCOC(=O)CCn1cnc2sc(C)c(-c3cccc(Cl)c3)c2c1=O [2 / 3-Cl—Ph / Me / OEt]
I10 μM/ICONTROL (mean ± SEM, %) Glu N2D [1]: 97 ± 1.6%
I10 μM/ICONTROL (mean ± SEM, %) Glu N2B [2]: 107 ± 2.3%
I10 μM/ICONTROL (mean ± SEM, %) Glu N2C [3]: 91 ± 2.5%

Cc1sc2ncn(CC(=O)N3CCCC3)c(=O)c2c1-c1cccc(Br)c1 [3-Br—Ph / Me]
I10 μM/ICONTROL (mean ± SEM, %) Glu N2D [1]: 239 ± 11.5%
EC50 ([1]; Table 1): 21 µM
maximal potentiation Glu N2D [1, 4]: 687%
I10 μM/ICONTROL (mean ± SEM, %) Glu N2B [2]: 172 ± 8.7%
EC50 [2, 5]: 11 µM
maximal potentiation Glu N2B [2, 4]: 266%
I10 μM/ICONTROL (mean ± SEM, %) Glu N2C [3]: 241 ± 19.7%
EC50 ([3]; Table 1): 17 µM
maximal potentiation Glu N2C [3, 4]: 568%

Cc1sc2ncn(CC(=O)N3CCCC3)c(=O)c2c1-c1cccc(N=[N+]=[N-])c1 [3-N3—Ph / Me]
I10 μM/ICONTROL (mean ± SEM, %) Glu N2D [1]: 175 ± 9.4%
EC50 ([1]; Table 1): 10 µM
maximal potentiation Glu N2D [1, 4]: 592%
I10 μM/ICONTROL (mean ± SEM, %) Glu N2B [2]: 176 ± 8.1%
EC50 [2, 5]: 23.8 µM
maximal potentiation Glu N2B [2, 4]: 295%
I10 μM/ICONTROL (mean ± SEM, %) Glu N2C [3]: 264 ± 17.7%
EC50 ([3]; Table 1): 10 µM
maximal potentiation Glu N2C [3, 4]: 613%

CCSC(=O)Cn1cnc2sc(C)c(-c3cccc(Cl)c3)c2c1=O [1 / 3-Cl—Ph / Me / SEt]
I10 μM/ICONTROL (mean ± SEM, %) Glu N2D [1]: 90 ± 1.3%
I10 μM/ICONTROL (mean ± SEM, %) Glu N2B [2]: 95 ± 0.9%
I10 μM/ICONTROL (mean ± SEM, %) Glu N2C [3]: 95 ± 2.8%

Cc1sc2ncn(CC(=O)N3CCCC3)c(=O)c2c1-c1ccccc1C(F)(F)F [2-CF3—Ph / Me]
I10 μM/ICONTROL (mean ± SEM, %) Glu N2D [1]: 94 ± 1.4%
I10 μM/ICONTROL (mean ± SEM, %) Glu N2B [2]: 93 ± 2.0%
I10 μM/ICONTROL (mean ± SEM, %) Glu N2C [3]: 95 ± 2.1%

Cc1sc2ncn(CC(=O)c3cccs3)c(=O)c2c1-c1cccc(Cl)c1 [1 / 3-Cl—Ph / Me / 2-thiophene]
I10 μM/ICONTROL (mean ± SEM, %) Glu N2D [1]: 137 ± 6.3%
IC50 ([1]; Table 2): 15 µM
maximal potentiation Glu N2D [1, 6]: (224) %
I10 μM/ICONTROL (mean ± SEM, %) Glu N2B [2]: 133 ± 3.9%
IC50 ([2]; Table 2, glutamate 100 μM, glycine 30 μM, Hill fit, read-out: IC50 Glu N2B): 14 µM
maximal potentiation Glu N2B [2, 6]: (207) %
I10 μM/ICONTROL (mean ± SEM, %) Glu N2C [3]: 125 ± 2.8%
IC50 ([3]; Table 2): 19 µM
maximal potentiation Glu N2C [3, 6]: (293) %

Cc1sc2ncn(CC(=O)SC(C)(C)C)c(=O)c2c1-c1cccc(Cl)c1 [1 / 3-Cl—Ph / Me / StBu]
I10 μM/ICONTROL (mean ± SEM, %) Glu N2D [1]: 73 ± 2.6%
I10 μM/ICONTROL (mean ± SEM, %) Glu N2B [2]: 92 ± 4.6%
I10 μM/ICONTROL (mean ± SEM, %) Glu N2C [3]: 87 ± 4.0%

Cc1sc2ncn(CC(=O)N3CCCC3)c(=O)c2c1-c1cc(Br)cc(Br)c1 [3,5-Br—Ph / Me]
I10 μM/ICONTROL (mean ± SEM, %) Glu N2D [1]: 230 ± 13.5%
EC50 ([1]; Table 1): 3.86 µM
maximal potentiation Glu N2D [1, 4]: 202%
I10 μM/ICONTROL (mean ± SEM, %) Glu N2B [2]: 156 ± 5.2%
EC50 [2, 5]: 1.08 µM
maximal potentiation Glu N2B [2, 4]: 143%
I10 μM/ICONTROL (mean ± SEM, %) Glu N2C [3]: 195 ± 6.9%
EC50 ([3]; Table 1): 2.2 µM
maximal potentiation Glu N2C [3, 4]: 195%

Cc1sc2ncn(CC(=O)N3CCCCC3)c(=O)c2c1-c1cc(C(F)(F)F)cc(C(F)(F)F)c1 [1 / 3,5-CF3—Ph / Me / —Npiperidine]
IC50 ([3]; Table 2): 1.4 µM
maximal potentiation Glu N2C [3, 6]: (155) %

Cc1sc2ncn(CCC(=O)Oc3ccccc3)c(=O)c2c1-c1cccc(Cl)c1 [2 / 3-Cl—Ph / Me / OPh]
I10 μM/ICONTROL (mean ± SEM, %) Glu N2D [1]: 88 ± 2.4%
I10 μM/ICONTROL (mean ± SEM, %) Glu N2B [2]: 104 ± 3.6%
I10 μM/ICONTROL (mean ± SEM, %) Glu N2C [3]: 91 ± 1.1%

Cc1sc2ncn(CC(=O)N3CCCCC3)c(=O)c2c1-c1ccc(Br)c(Br)c1 [1 / 3,4-Br—Ph / Me / —Npiperidine]
I10 μM/ICONTROL (mean ± SEM, %) Glu N2D [1]: 143 ± 3.2%
IC50 ([1]; Table 2): 94 µM
maximal potentiation Glu N2D [1, 6]: (600) %
I10 μM/ICONTROL (mean ± SEM, %) Glu N2C [3]: 168 ± 13.9%
IC50 ([3]; Table 2): 15 µM
maximal potentiation Glu N2C [3, 6]: (300) %

Cc1sc2ncn(CC(=O)C3CCCC3)c(=O)c2c1-c1cccc(I)c1 [1 / 3-I—Ph / Me / -cyclopentyl]
I10 μM/ICONTROL (mean ± SEM, %) Glu N2D [1]: 133 ± 3.0%
IC50 ([1]; Table 2): 14 µM
maximal potentiation Glu N2D [1, 6]: (191) %
I10 μM/ICONTROL (mean ± SEM, %) Glu N2C [3]: 166 ± 9.5%
IC50 ([3]; Table 2): 9.4 µM
maximal potentiation Glu N2C [3, 6]: (225) %

Cc1sc2ncn(CC(=O)N3CCCCC3)c(=O)c2c1-c1ccc(Cl)cc1 [1 / 4-Cl—Ph / Me / —Npiperidine]
IC50 ([1]; Table 2): 52 µM
maximal potentiation Glu N2D [1, 6]: (163) %
IC50 ([3]; Table 2): 136 µM
maximal potentiation Glu N2C [3, 6]: (232) %

CON(C)C(=O)Cn1cnc2sc(C)c(-c3cccc(I)c3)c2c1=O [1 / 3-I—Ph / Me / —N(OMe)Me]
I10 μM/ICONTROL (mean ± SEM, %) Glu N2D [1]: 119 ± 8.9%
I10 μM/ICONTROL (mean ± SEM, %) Glu N2C [3]: 109 ± 4.9%

Cc1sc2ncn(CC(=O)c3ccc(Cl)cc3Cl)c(=O)c2c1-c1cccc(I)c1 [1 / 3-I—Ph / Me / 2,4-Cl—Ph]
I10 μM/ICONTROL (mean ± SEM, %) Glu N2D [1]: 93 ± 1.8%
I10 μM/ICONTROL (mean ± SEM, %) Glu N2C [3]: 96 ± 4.8%

Cc1sc2ncn(CC(=O)N3CCCCC3)c(=O)c2c1-c1cccc(I)c1 [1 / 3-I—Ph / Me / —Npiperidine]
I10 μM/ICONTROL (mean ± SEM, %) Glu N2D [1]: 124 ± 4.8%
I10 μM/ICONTROL (mean ± SEM, %) Glu N2C [3]: 145 ± 11.4%

Cc1sc2ncn(CC(=O)N3CCCCC3)c(=O)c2c1-c1cc(Br)cc(Br)c1 [1 / 3,5-Br—Ph / Me / —Npiperidine]
I10 μM/ICONTROL (mean ± SEM, %) Glu N2D [1]: 179 ± 10.1%
I10 μM/ICONTROL (mean ± SEM, %) Glu N2C [3]: 232 ± 14.4%
IC50 ([3]; Table 2): 4.3 µM
maximal potentiation Glu N2C [3, 6]: (233) %
